Measured values reported in patent US9598387B2 (Southern Research Institute, priority 2012, dated 2017).

Tests used:
Long Evans rats = assay: Spontaneous locomotor activity; assay type: in vivo, rat; settings: 10 minutes prior to placement in chambers
Experimental: These studies were performed using Long Evans rats using standard protocols. Locomotor activity chambers measuring 43×43×30 cm (l×w×h) were used for the locomotor activity experiments. Each chamber was equipped with eight photo-emitters positioned along the length of the chamber 6 cm above the floor, each paired directly opposite a photocell. Locomotor activity counts were registered when adjacent beams were broken consecutively. Before receiving any drug, the animals (n=96) were placed in locomotor activity chambers for habituation, for 2 hours per day for 3 consecutive days. Based on the locomotor activity score obtained during the third habituation session, animals were assigned into one of […] treatment groups. […] For the 113 alone experiments, each of the four groups received one of 4 doses of 113 (0, 3.75, 7.5 or 15 mg/kg) 10 minutes prior to placement in the activity chambers. For the 113 cocaine interaction experiments, each of 4 groups were injected with one of the 4 doses of the compound (0, 3.75, 7.5 or 15 mg/kg) 10 minutes before receiving 10 mg/kg of cocaine as the second injection. […] The locomotor counts in the 113 alone and 113/cocaine experiments were analyzed using two separate mixed-design ANOVAs with 113 dose (between-groups) and 5-min bins (repeated measures) as factors. […]

D3R = D3R (Homo sapiens (Human), UniProt P35462); assay: [35S]GTPγS Binding Assay, CHO D3 membranes; assay type: biochemical; settings: antagonist vs dopamine; Ke = functional Ki; read-out: CHO-hD3 Ke
D3R, sequence (P35462 whole entry): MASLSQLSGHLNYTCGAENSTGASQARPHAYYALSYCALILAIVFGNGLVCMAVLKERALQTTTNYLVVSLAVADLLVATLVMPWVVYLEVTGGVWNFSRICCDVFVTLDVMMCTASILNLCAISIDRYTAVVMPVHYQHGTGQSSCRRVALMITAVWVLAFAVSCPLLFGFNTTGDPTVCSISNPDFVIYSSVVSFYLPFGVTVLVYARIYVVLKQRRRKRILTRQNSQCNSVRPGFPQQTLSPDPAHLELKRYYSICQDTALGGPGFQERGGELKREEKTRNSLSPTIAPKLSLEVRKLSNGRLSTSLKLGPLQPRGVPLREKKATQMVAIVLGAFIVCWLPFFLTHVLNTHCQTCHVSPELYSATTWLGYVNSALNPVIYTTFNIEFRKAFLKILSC
Experimental: Chinese hamster ovary (CHO) cells expressing human D2L and D3 receptors served as the source for membrane fractions which were washed and resuspended with assay buffer containing Mg^2+, Na^+, EGTA, and bovine serum albumin. […] After preincubation with test compounds, cell membranes and GDP for 15 minutes at 30° C. in a shaking water bath, [^35S]GTPγS was added and incubation proceeded for an additional 45 minutes. Cell membranes were harvested on Brandel GF/B filtermats with a 24-pin Brandel harvester (Biomedical Research & Development Laboratories, Inc., Gaithersburg, Md.). […] Antagonist activity was assessed by testing a fixed concentration of the test compound and varying concentration of the agonist, dopamine (0.001-100 μM for CHO D2 and 0.1 nM-10 uM for CHO D3).

[1] = molecular target: human D2 dopamine receptors (Homo sapiens (Human), UniProt P14416); assay: Whole Cell Adenylyl Cyclase Assay, D2; assay type: cell-based; settings: inhibition of forskolin (100 μM) stimulated cAMP, normalized to quinpirole; compound conc ≥10× Ki (per compound); mean ± S.E.M.
human D2 dopamine receptors, sequence (P14416 whole entry): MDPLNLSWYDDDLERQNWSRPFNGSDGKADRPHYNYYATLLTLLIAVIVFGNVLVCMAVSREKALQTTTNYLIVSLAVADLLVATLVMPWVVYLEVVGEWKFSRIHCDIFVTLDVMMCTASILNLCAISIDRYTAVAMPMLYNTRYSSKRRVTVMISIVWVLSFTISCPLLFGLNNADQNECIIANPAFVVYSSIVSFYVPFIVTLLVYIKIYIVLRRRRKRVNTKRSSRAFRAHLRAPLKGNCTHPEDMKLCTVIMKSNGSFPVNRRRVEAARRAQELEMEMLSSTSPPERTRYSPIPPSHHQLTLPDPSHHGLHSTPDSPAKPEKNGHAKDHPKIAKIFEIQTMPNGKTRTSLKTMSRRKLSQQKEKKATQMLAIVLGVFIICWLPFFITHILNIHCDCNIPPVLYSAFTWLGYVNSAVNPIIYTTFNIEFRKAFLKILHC

Ki (D3R): 1.32 ± 0.35 nM
D2 Cyclase % Inhibition Normalized [1]: −1.9 ± 13.3%
SMILES: CC(C)(C)c1nc(N2CCN(CCCCNC(=O)c3cn4ccccc4n3)CC2)cc(C(F)(F)F)n1 [Compound 113, N-(4-(4-(2-(tert-Butyl)-6-(trifluoromethyl)pyrimidin-4-yl)piperazin-1-yl)butyl)imidazo[1,2-a]pyridine-2-carboxamide]
spontaneous locomotor activity (Long Evans rats; 3.75 mg dose): had no effect on spontaneous locomotor activity
spontaneous locomotor activity (Long Evans rats; 7.5 and 15 mg doses): appeared to reduce locomotor activity in the first 5 minutes of testing but did not affect activity after that
